Structures are written as SMILES.

Test [1] addresses cAMP-specific 3',5'-cyclic phosphodiesterase 4D [372-376,381-715,S375G,I381V,S383G,G384S,V385H,K386M) (Homo sapiens, UniProt Q08499, S375G/I381V/S383G/G384S/V385H/K386M). In words: Phosphodiesterase (PDE) Inhibition Assay. Here is the method: (§1) Phosphodiesterase activities were assayed in the presence of inhibitor compounds. Measurement takes advantage of the selective binding of 5-AMP or 5-GMP (and not cAMP or cGMP) to yttrium silicate beads with embedded scintillant. Hydrolysis is quantified by reading in a scintillation counter (Trilux, Wallac). The cAMP and cGMP concentrations used were far below the Km of PDE.

The target of test [2] is T1, cAMP-specific 3',5'-cyclic phosphodiesterase 4B [316-320,321-700,S319G,N320S,N321H,T322M] (Homo sapiens, UniProt Q07343, S319G/N320S/N321H/T322M).
T1 construct: 316-320,321-700
In words: Phosphodiesterase (PDE) Inhibition Assay. Conditions: pH 7.5; 30 °C. The protocol:
as §1

As to `Cc1n[nH]c(C)c1C(=O)O` [3,5-dimethyl-1H-pyrazole-4-carboxylic acid], the IC50 in test [1] and in test [2] was greater than 200 µM throughout.

On to `CCOC(=O)c1c[nH]nc1C(F)(F)F` [5-(trifluoromethyl)-1H-pyrazole-4-carboxylic acid ethyl ester], for which the half-inhibitory concentration (IC50) in test [1] and in test [2] was greater than 200 µM in each case.

With `CCOC(=O)c1c(C)nn(-c2ccc([N+](=O)[O-])cc2[N+](=O)[O-])c1C` [ethyl 1-(2,4-dinitrophenyl)-3,5-dimethyl-1H-pyrazole-4-carboxylate], the IC50 in test [1] turned out to be 4.6 µM; in test [2] it was 17 µM.

In test [1], `CCOC(=O)c1c(C)nn(-c2ccccc2Cl)c1C` [ethyl 1-(2-chlorophenyl)-3,5-dimethyl-1H-pyrazole-4-carboxylate] came in with a 50% inhibitory concentration (IC50) of 0.019 µM.

In test [2], `CCOC(=O)c1c(C)nn(-c2ccc(N)cc2)c1C` [ethyl 1-(4-aminophenyl)-3,5-dimethyl-1H-pyrazole-4-carboxylate] had a half-maximal inhibitory concentration (IC50) of 0.35 µM.

In turn, `CCOC(=O)c1c(C)nn(-c2ccc(OC)cc2)c1C` [ethyl 1-(4-methoxyphenyl)-3,5-dimethyl-1H-pyrazole-4-carboxylate] gave an IC50 in test [2] of 5.9 µM.

Turning to `CCOC(=O)c1c(C)nn(-c2ccc(C(C)(C)C)cc2)c1C` [ethyl 1-(4-tert-butylphenyl)-3,5-dimethyl-1H-pyrazole-4-carboxylate], the values for the IC50 in test [1] and in test [2] were 14 µM and 19 µM, respectively.

As to `CCOC(=O)c1c(C)nn(-c2cc(C(F)(F)F)cc(C(F)(F)F)c2)c1C` [ethyl 1-[3,5-bis(trifluoromethyl)phenyl]-3,5-dimethyl-1H-pyrazole-4-carboxylate], the half-maximal inhibitory concentration (IC50) was determined as 97 µM in test [1] and 160 µM in test [2].

Regarding `CCOC(=O)c1c(C)nn(-c2ccc([N+](=O)[O-])cc2)c1C` [ethyl 3,5-dimethyl-1-(4-nitrophenyl)-1H-pyrazole-4-carboxylate], the IC50 in test [1] is 1 µM; in test [2], 0.84 µM.

As to `CCOC(=O)c1c(C)nn(-c2ccc(S(N)(=O)=O)cc2)c1C` [ethyl 3,5-dimethyl-1-(4-sulfamoylphenyl)-1H-pyrazole-4-carboxylate], the IC50 in test [1] came to 9.1 µM; in test [2], 13 µM.

Take `CCOC(=O)c1c(C)nn(-c2cccc3cccnc23)c1C` [ethyl 3,5-dimethyl-1-(quinolin-8-yl)-1H-pyrazole-4-carboxylate]: the IC50 in test [1] worked out at 19 µM; in test [2], 17 µM.

Regarding `CCOC(=O)c1c(C)nn(-c2ccc(OC(F)(F)F)cc2)c1C` [ethyl 3,5-dimethyl-1-[4-(trifluoromethoxy)phenyl]-1H-pyrazole-4-carboxylate], the IC50 in test [1] stood at 21 µM; in test [2], 32 µM.

For the compound `CCOC(=O)c1c(C)nn(-c2ccccc2)c1C` [ethyl 3,5-dimethyl-1-phenyl-1H-pyrazole-4-carboxylate], in test [2], the half-maximal inhibitory concentration (IC50) came to 0.31 µM.

Regarding `CCOC(=O)c1c(C)n[nH]c1C` [ethyl 3,5-dimethyl-1H-pyrazole-4-carboxylate], the midpoint of inhibition in test [2], the IC50, lay at 60 µM.

For `CCOC(=O)c1cn(-c2ccccc2)nc1-c1ccc(Cl)cc1` [ethyl 3-(4-chlorophenyl)-1-phenyl-1H-pyrazole-4-carboxylate], the IC50 in test [1] worked out at 0.88 µM; in test [2], 1.5 µM.

As to `CCOC(=O)c1cn[nH]c1N` [ethyl 3-amino-1H-pyrazole-4-carboxylate], the IC50 in test [1] and in test [2] was greater than 200 µM each time.

`CCOC(=O)c1c(-c2ccc(OC)cc2)n[nH]c1N` [ethyl 3-amino-5-(4-methoxyphenyl)-1H-pyrazole-4-carboxylate]: the IC50 in test [1] is 19 µM; in test [2] it was 15 µM.

Consider `CCOC(=O)c1cn[nH]c1C` [ethyl 3-methyl-1H-pyrazole-4-carboxylate], for which the half-inhibitory concentration (IC50) in test [1] and in test [2] was greater than 200 µM each time.

Turning to `CCOC(=O)c1cnn(-c2ncnc3sc4c(c23)CCCC4)c1N` [ethyl 5-amino-1-{8-thia-4,6-diazatricyclo[7.4.0.0^{2,7}]trideca-1(9),2(7),3,5-tetraen-3-yl}-1H-pyrazole-4-carboxylate], the IC50 is 50 µM in test [1] and 25 µM in test [2].

Consider `COC(=O)c1c(-c2cc(C)on2)n[nH]c1C` [methyl 3-methyl-5-(5-methyl-1,2-oxazol-3-yl)-1H-pyrazole-4-carboxylate], for which the half-inhibitory concentration (IC50) in test [1] and in test [2] was greater than 200 µM in each case.

The IC50 is the concentration at which inhibition is half-maximal.

The values are drawn from BindingDB's records for doi:10.1038/nbt1059 (Plexxikon, 2005).
